These results are taken from publication PMC13464545, “Mouse Norovirus Uses Host Metabolites to Enhance Receptor Binding and Evade Immune Recognition” (Medical research archives, 2022).

Each structure is given as a SMILES string. pKd: −log10 of the molar value.

In the assay the target is T1, MNV P domain (Murine norovirus 1, UniProt Q80J94).
T1 construct: gene ORF2; C-terminal protruding (P) domain of VP1, expressed as soluble form without the shell domain; dimerizes
Kind of assay: isothermal titration calorimetry. Format: binding.

T1 sequence (Q80J94 229-541): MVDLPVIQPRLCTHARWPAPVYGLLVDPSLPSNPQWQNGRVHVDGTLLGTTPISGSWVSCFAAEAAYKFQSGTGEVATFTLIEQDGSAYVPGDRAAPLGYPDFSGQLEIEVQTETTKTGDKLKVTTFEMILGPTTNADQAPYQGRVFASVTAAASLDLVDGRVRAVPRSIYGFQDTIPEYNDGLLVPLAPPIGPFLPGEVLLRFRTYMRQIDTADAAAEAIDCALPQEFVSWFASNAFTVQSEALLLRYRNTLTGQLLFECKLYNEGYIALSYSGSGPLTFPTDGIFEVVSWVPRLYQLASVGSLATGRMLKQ

Broadly, the pKd is the negative decadic logarithm of the Kd, by convention in mol/L. A lower pKd goes with a large Kd. Compound `C[C@H](CCC(=O)NCC(=O)O)[C@H]1CC[C@H]2[C@@H]3[C@H](O)C[C@@H]4C[C@H](O)CC[C@]4(C)[C@H]3CC[C@]12C` [GCDCA] showed a pKd of about 4.89.
